From the NIST ThermoML archive (doi:10.1021/je100175j)
Numbers after ± are expanded uncertainties.

Columns and labels:
[1] = for Triple point temperature: DTA
[2] = Molar enthalpy of transition or fusion; conditions: Crystal; DSC

With `CN(C)C(=O)c1ccccc1` [N,N-dimethylbenzamide] the “vapor or sublimation pressure” value ([1]; 297.04 K, Crystal) was 0.00054 ± 0.0001 kPa, the “vapor or sublimation pressure” value ([1]; 299.03 K, Crystal) was 0.00069 ± 0.0001 kPa and the “vapor or sublimation pressure” value ([1]; 301.02 K, Crystal) was 0.00086 ± 0.0001 kPa. For the same compound, the “vapor or sublimation pressure” value ([1]; 301.98 K, Liquid, Closed cell (Static) method) was 0.00134 ± 0.00012 kPa, the “vapor or sublimation pressure” value ([1]; 303.02 K, Crystal) was 0.0011 ± 0.00011 kPa and the “vapor or sublimation pressure” value ([1]; 303.99 K, Liquid, Closed cell (Static) method) was 0.00162 ± 0.00012 kPa. For the same compound, the “vapor or sublimation pressure” value ([1]; 305 K, Crystal) was 0.00138 ± 0.00011 kPa, the “vapor or sublimation pressure” value ([1]; 305.97 K, Liquid, Closed cell (Static) method) was 0.00195 ± 0.00013 kPa and the “vapor or sublimation pressure” value ([1]; 307 K, Crystal) was 0.00171 ± 0.00011 kPa. For the same compound, the “vapor or sublimation pressure” value ([1]; 307.96 K, Liquid, Closed cell (Static) method) was 0.00232 ± 0.00014 kPa, the “vapor or sublimation pressure” value ([1]; 308.98 K, Crystal) was 0.00215 ± 0.00011 kPa and the “vapor or sublimation pressure” value ([1]; 310.43 K, Liquid, Closed cell (Static) method) was 0.00289 ± 0.00016 kPa. For the same compound, the “vapor or sublimation pressure” value ([1]; 310.98 K, Crystal) was 0.00269 ± 0.00012 kPa, the “vapor or sublimation pressure” value ([1]; 312.3 K, Liquid, Closed cell (Static) method) was 0.00343 ± 0.00017 kPa and the “vapor or sublimation pressure” value ([1]; 312.98 K, Crystal) was 0.00336 ± 0.00012 kPa. The “vapor or sublimation pressure” value ([1]; 314 K, Liquid, Closed cell (Static) method) was 0.00399 ± 0.00019 kPa, the “vapor or sublimation pressure” value ([1]; 314.98 K, Crystal) was 0.00418 ± 0.00013 kPa and the “vapor or sublimation pressure” value ([1]; 316 K, Liquid, Closed cell (Static) method) was 0.00472 ± 0.00021 kPa. For the same compound, the “vapor or sublimation pressure” value ([1]; 317.97 K, Liquid, Closed cell (Static) method) was 0.0056 ± 0.00025 kPa, the “vapor or sublimation pressure” value ([1]; 319.95 K, Liquid, Closed cell (Static) method) was 0.00658 ± 0.00028 kPa and the “vapor or sublimation pressure” value ([1]; 321.94 K, Liquid, Closed cell (Static) method) was 0.00776 ± 0.00032 kPa. The “vapor or sublimation pressure” value ([1]; 323.93 K, Liquid, Closed cell (Static) method) was 0.00909 ± 0.00037 kPa, the “vapor or sublimation pressure” value ([1]; 325.88 K, Liquid, Closed cell (Static) method) was 0.01066 ± 0.00043 kPa and the “vapor or sublimation pressure” value ([1]; 327.91 K, Liquid, Closed cell (Static) method) was 0.01239 ± 0.0005 kPa. The “vapor or sublimation pressure” value ([1]; 329.85 K, Liquid, Closed cell (Static) method) was 0.01439 ± 0.00054 kPa, the “vapor or sublimation pressure” value ([1]; 331.88 K, Liquid, Closed cell (Static) method) was 0.01676 ± 0.00057 kPa and the “vapor or sublimation pressure” value ([1]; 333.84 K, Liquid, Closed cell (Static) method) was 0.01949 ± 0.00061 kPa. The “vapor or sublimation pressure” value ([1]; 335.85 K, Liquid, Closed cell (Static) method) was 0.02238 ± 0.00066 kPa, the “vapor or sublimation pressure” value ([1]; 337.8 K, Liquid, Closed cell (Static) method) was 0.02598 ± 0.00071 kPa and the “vapor or sublimation pressure” value ([1]; 339.82 K, Liquid, Closed cell (Static) method) was 0.02969 ± 0.00077 kPa. For the same compound, the “vapor or sublimation pressure” value ([1]; 341.77 K, Liquid, Closed cell (Static) method) was 0.03432 ± 0.00084 kPa, the “vapor or sublimation pressure” value ([1]; 343.8 K, Liquid, Closed cell (Static) method) was 0.03916 ± 0.00092 kPa and the “vapor or sublimation pressure” value ([1]; 345.73 K, Liquid, Closed cell (Static) method) was 0.04503 ± 0.001 kPa. The “vapor or sublimation pressure” value ([1]; 347.77 K, Liquid, Closed cell (Static) method) was 0.05151 ± 0.0011 kPa, the “vapor or sublimation pressure” value ([1]; 349.68 K, Liquid, Closed cell (Static) method) was 0.05866 ± 0.0012 kPa and the “vapor or sublimation pressure” value ([1]; 351.75 K, Liquid, Closed cell (Static) method) was 0.06697 ± 0.0014 kPa. The “vapor or sublimation pressure” value ([1]; 353.64 K, Liquid, Closed cell (Static) method) was 0.07571 ± 0.0015 kPa, the “vapor or sublimation pressure” value ([1]; 355.7 K, Liquid, Closed cell (Static) method) was 0.08611 ± 0.0016 kPa and the “vapor or sublimation pressure” value ([1]; 357.62 K, Liquid, Closed cell (Static) method) was 0.09722 ± 0.0018 kPa. For the same compound, the “vapor or sublimation pressure” value ([1]; 359.68 K, Liquid, Closed cell (Static) method) was 0.1102 ± 0.002 kPa, the “vapor or sublimation pressure” value ([1]; 361.66 K, Liquid, Closed cell (Static) method) was 0.1244 ± 0.0022 kPa and the Triple point temperature ([1]; Crystal) was 316.9 ± 0.41 K. For the same compound, the “Molar enthalpy of transition or fusion” value [2] was 5.07 ± 0.117 kcal/mol.

In the case of `CNC(=O)c1ccccc1` [N-methylbenzamide], the “vapor or sublimation pressure” value ([1]; 322.88 K, Liquid, Closed cell (Static) method) is reported as 0.00067 ± 0.00011 kPa, the “vapor or sublimation pressure” value ([1]; 324.88 K, Crystal) is reported as 0.0005 ± 0.00011 kPa and the “vapor or sublimation pressure” value ([1]; 324.94 K, Liquid, Closed cell (Static) method) is reported as 0.00083 ± 0.00012 kPa. The “vapor or sublimation pressure” value ([1]; 326.83 K, Crystal) was 0.00063 ± 0.00011 kPa, the “vapor or sublimation pressure” value ([1]; 326.92 K, Liquid, Closed cell (Static) method) was 0.00099 ± 0.00012 kPa and the “vapor or sublimation pressure” value ([1]; 328.89 K, Liquid, Closed cell (Static) method) was 0.00117 ± 0.00012 kPa. The “vapor or sublimation pressure” value ([1]; 328.93 K, Crystal) was 0.0008 ± 0.00011 kPa, the “vapor or sublimation pressure” value ([1]; 330.82 K, Crystal) was 0.00098 ± 0.00011 kPa and the “vapor or sublimation pressure” value ([1]; 330.88 K, Liquid, Closed cell (Static) method) was 0.0014 ± 0.00012 kPa. The “vapor or sublimation pressure” value ([1]; 332.75 K, Crystal) was 0.00121 ± 0.00012 kPa, the “vapor or sublimation pressure” value ([1]; 332.86 K, Liquid, Closed cell (Static) method) was 0.00166 ± 0.00013 kPa and the “vapor or sublimation pressure” value ([1]; 334.8 K, Crystal) was 0.00152 ± 0.00012 kPa. For the same compound, the “vapor or sublimation pressure” value ([1]; 334.86 K, Liquid, Closed cell (Static) method) was 0.00201 ± 0.00014 kPa, the “vapor or sublimation pressure” value ([1]; 336.82 K, Crystal) was 0.00189 ± 0.00012 kPa and the “vapor or sublimation pressure” value ([1]; 336.84 K, Liquid, Closed cell (Static) method) was 0.00241 ± 0.00015 kPa. The “vapor or sublimation pressure” value ([1]; 338.82 K, Liquid, Closed cell (Static) method) was 0.00284 ± 0.00016 kPa, the “vapor or sublimation pressure” value ([1]; 338.85 K, Crystal) was 0.00235 ± 0.00012 kPa and the “vapor or sublimation pressure” value ([1]; 340.8 K, Liquid, Closed cell (Static) method) was 0.00336 ± 0.00018 kPa. The “vapor or sublimation pressure” value ([1]; 340.81 K, Crystal) was 0.00284 ± 0.00013 kPa, the “vapor or sublimation pressure” value ([1]; 342.75 K, Crystal) was 0.00348 ± 0.00013 kPa and the “vapor or sublimation pressure” value ([1]; 342.8 K, Liquid, Closed cell (Static) method) was 0.00398 ± 0.0002 kPa. The “vapor or sublimation pressure” value ([1]; 344.79 K, Crystal) was 0.00426 ± 0.00014 kPa, the “vapor or sublimation pressure” value ([1]; 344.8 K, Liquid, Closed cell (Static) method) was 0.0047 ± 0.00022 kPa and the “vapor or sublimation pressure” value ([1]; 345.79 K, Crystal) was 0.00471 ± 0.00015 kPa. For the same compound, the “vapor or sublimation pressure” value ([1]; 346.77 K, Liquid, Closed cell (Static) method) was 0.00547 ± 0.00024 kPa, the “vapor or sublimation pressure” value ([1]; 346.8 K, Crystal) was 0.00528 ± 0.00016 kPa and the “vapor or sublimation pressure” value ([1]; 347.77 K, Crystal) was 0.00575 ± 0.00016 kPa. For the same compound, the “vapor or sublimation pressure” value ([1]; 348.76 K, Crystal) was 0.00631 ± 0.00017 kPa, the “vapor or sublimation pressure” value ([1]; 348.77 K, Liquid, Closed cell (Static) method) was 0.0064 ± 0.00028 kPa and the “vapor or sublimation pressure” value ([1]; 350.75 K, Liquid, Closed cell (Static) method) was 0.00753 ± 0.00032 kPa. The “vapor or sublimation pressure” value ([1]; 352.74 K, Liquid, Closed cell (Static) method) was 0.00861 ± 0.00036 kPa, the “vapor or sublimation pressure” value ([1]; 354.74 K, Liquid, Closed cell (Static) method) was 0.01013 ± 0.00041 kPa and the “vapor or sublimation pressure” value ([1]; 356.7 K, Liquid, Closed cell (Static) method) was 0.01168 ± 0.00047 kPa. For the same compound, the “vapor or sublimation pressure” value ([1]; 358.72 K, Liquid, Closed cell (Static) method) was 0.01359 ± 0.00053 kPa, the “vapor or sublimation pressure” value ([1]; 360.66 K, Liquid, Closed cell (Static) method) was 0.01572 ± 0.00056 kPa and the “vapor or sublimation pressure” value ([1]; 362.68 K, Liquid, Closed cell (Static) method) was 0.01812 ± 0.0006 kPa. For the same compound, the “vapor or sublimation pressure” value ([1]; 364.63 K, Liquid, Closed cell (Static) method) was 0.02093 ± 0.00064 kPa, the “vapor or sublimation pressure” value ([1]; 366.62 K, Liquid, Closed cell (Static) method) was 0.02394 ± 0.00068 kPa and the “vapor or sublimation pressure” value ([1]; 368.59 K, Liquid, Closed cell (Static) method) was 0.0275 ± 0.00074 kPa. For the same compound, the “vapor or sublimation pressure” value ([1]; 370.59 K, Liquid, Closed cell (Static) method) was 0.03148 ± 0.0008 kPa, the “vapor or sublimation pressure” value ([1]; 372.57 K, Liquid, Closed cell (Static) method) was 0.03612 ± 0.00087 kPa and the “vapor or sublimation pressure” value ([1]; 374.56 K, Liquid, Closed cell (Static) method) was 0.04095 ± 0.00095 kPa. For the same compound, the “vapor or sublimation pressure” value ([1]; 376.53 K, Liquid, Closed cell (Static) method) was 0.04725 ± 0.001 kPa, the “vapor or sublimation pressure” value ([1]; 378.51 K, Liquid, Closed cell (Static) method) was 0.05325 ± 0.0011 kPa and the “vapor or sublimation pressure” value ([1]; 380.49 K, Liquid, Closed cell (Static) method) was 0.06051 ± 0.0013 kPa. The “vapor or sublimation pressure” value ([1]; 382.47 K, Liquid, Closed cell (Static) method) was 0.06884 ± 0.0014 kPa, the “vapor or sublimation pressure” value ([1]; 384.46 K, Liquid, Closed cell (Static) method) was 0.07804 ± 0.0015 kPa and the “vapor or sublimation pressure” value ([1]; 386.43 K, Liquid, Closed cell (Static) method) was 0.08821 ± 0.0017 kPa. For the same compound, the “vapor or sublimation pressure” value ([1]; 388.4 K, Liquid, Closed cell (Static) method) was 0.101 ± 0.0019 kPa, the Triple point temperature ([1]; Crystal) was 347.41 ± 0.39 K and the “Molar enthalpy of transition or fusion” value [2] was 4.45 ± 0.136 kcal/mol.
